This assay is filed under the species Homo sapiens. The assay can be described thus: Bronchodilation activity against leukotriene D4-induced constriction in human lung small airways assessed as remaining contraction at 10 uM after 1.5 hrs relative to control. The class given is functional.

Regarding `CC1c2cc(O)c(O)cc2CCN1C(=S)NCCc1ccc(Cl)cc1` (centres undefined), the Remaining contraction came out at 58%. `Oc1cc2c(cc1O)C(Cc1ccccc1)N(C(=S)NCCc1ccc(Cl)cc1)CC2` (centres undefined): the Remaining contraction was 79%. Consider `Oc1cc2c(cc1O)CCN(C(=S)NCCc1ccc(Cl)cc1)CC2`, for which the Remaining contraction worked out at 54%. `Oc1cc2c(cc1O)CN(C(=S)NCCc1ccc(Cl)cc1)CC2`: the Remaining contraction stood at 36%. Regarding `CC1Cc2cc(O)c(O)cc2CN1C(=S)NCCc1ccc(Cl)cc1` (centres undefined), the Remaining contraction was 70%. `Oc1ccc2c(c1)CCN(C(=S)NCCc1ccc(Cl)cc1)C2`: the Remaining contraction was found to be 52%.

`Oc1ccc2c(c1)CN(C(=S)NCCc1ccc(Cl)cc1)CCC2`: the Remaining contraction came to 40%. Regarding `Oc1ccc(CCNC(=S)NCCc2ccc(Cl)cc2)cc1O`, the Remaining contraction stood at 72%. With `CN(Cc1ccc(O)c(O)c1)C(=S)NCCc1ccc(Cl)cc1`, the Remaining contraction is 69%.

For the compound `Oc1ccc(CNC(=S)NCCc2ccc(Cl)cc2)cc1O`, the Remaining contraction was 69%. On to `Oc1cc2c(cc1O)CN(C(=S)NCCc1ccc(Cl)cc1)CCC2`, for which the Remaining contraction turned out to be 55%. In the case of `Oc1ccc2c(c1)CN(C(=S)NCCc1ccc(Cl)cc1)C2`, the Remaining contraction was 41%. The value for `Oc1cccc2c1CCN(C(=S)NCCc1ccc(Cl)cc1)C2` was 48%; that for `Oc1cccc2c1CN(C(=S)NCCc1ccc(Cl)cc1)C2` was 82%. For `Oc1ccc2c(c1O)CCN(C(=S)NCCc1ccc(Cl)cc1)C2`, the Remaining contraction was found to be 63%. On to `Oc1cccc2c1CN(C(=S)NCCc1ccc(Cl)cc1)CC2`, for which the Remaining contraction came out at 73%. Regarding `Oc1ccc2c(c1)CCCN(C(=S)NCCc1ccc(Cl)cc1)C2`, the Remaining contraction was determined as 53%. As to `Oc1cc2c(cc1O)CN(C(=S)NCCc1ccc(Cl)cc1)C2`, the Remaining contraction came out at 56%.

As to `Oc1ccc2c(c1)CN(C(=S)NCCc1ccc(Cl)cc1)CC2`, the Remaining contraction came to 75%.

For the origin of these results see ChEMBL document CHEMBL1141641, “SAR studies of capsazepinoid bronchodilators. Part 1: The importance of the catechol moiety and aspects of the B-ring structure” (Bioorg Med Chem, 2008).
